{
  "source": "patent US6468995B1",
  "about": "“Cephem compounds” (Fujisawa Pharmaceutical Co., Ltd., priority 1993, dated 2002)",
  "assay": "Stability test of the crystal",
  "assay_type": "physicochemical",
  "settings": "crystal containing 1/3 isopropanol",
  "data": [
    {"smiles": "Nc1nc(/C(=N/O)C(=O)N[C@@H]2C(=O)N3C(C(=O)O)=C(SCc4cn[nH]c4)CS[C@H]23)cs1", "note": "[Example 37, 7β-[2-(2-aminothiazol-4-yl)-2-(Z)-(hydroxyimino)acetamido]-3-[(pyrazol-4-yl)methylthio]-3-cephem-4-carboxylic acid containing 1/3 isopropanol]", "values": [
      {"measurement": "stability in the stability test", "value": "stable"}
    ]}
  ]
}
